Reference: ChEMBL document CHEMBL1148776, “Structure-based optimization of protein tyrosine phosphatase 1B inhibitors: from the active site to the second phosphotyrosine binding site” (J Med Chem, 2007)

Target: T1, Tyrosine-protein phosphatase non-receptor type 1 (Homo sapiens, UniProt P18031)
T1 sequence (P18031 whole entry): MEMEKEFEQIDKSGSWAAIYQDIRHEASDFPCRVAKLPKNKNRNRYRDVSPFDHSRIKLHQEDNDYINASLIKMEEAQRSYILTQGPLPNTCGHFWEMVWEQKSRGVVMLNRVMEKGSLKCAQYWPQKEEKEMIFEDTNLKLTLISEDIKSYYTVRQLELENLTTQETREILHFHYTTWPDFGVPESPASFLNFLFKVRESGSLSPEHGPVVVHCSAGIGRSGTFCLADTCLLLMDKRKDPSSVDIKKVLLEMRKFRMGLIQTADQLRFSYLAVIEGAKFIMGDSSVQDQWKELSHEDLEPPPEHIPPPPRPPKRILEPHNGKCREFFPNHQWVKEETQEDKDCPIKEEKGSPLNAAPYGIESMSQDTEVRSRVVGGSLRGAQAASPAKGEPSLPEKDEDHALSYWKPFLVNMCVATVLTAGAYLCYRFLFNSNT
Test: Inhibition of human recombinant PTP1B

Ki [µM] | Structure (SMILES)
0.007 | O=C(O)COc1c(C(=O)O)sc(-c2cccc(NCC3CCN(C(=O)Nc4ccccc4)CC3)c2)c1Br
0.013 | O=C(O)COc1c(C(=O)O)sc(-c2cccc(OCC3CCN(C(=O)Nc4ccccc4)CC3)c2)c1Br
0.038 | O=C(O)COc1c(C(=O)O)sc(-c2cccc(NC3CCN(S(=O)(=O)Cc4ccc(Cl)cc4)CC3)c2)c1Br
0.005 | O=C(O)COc1c(C(=O)O)sc(-c2cccc(NC3CCN(S(=O)(=O)Cc4ccccc4Cl)CC3)c2)c1Br
0.006 | O=C(O)COc1c(C(=O)O)sc(-c2cccc(NC3CCN(S(=O)(=O)Cc4ccccc4C(F)(F)F)CC3)c2)c1Br
0.006 | Cc1cccc(C)c1CS(=O)(=O)N1CCC(Nc2cccc(-c3sc(C(=O)O)c(OCC(=O)O)c3Br)c2)CC1
0.003 | COc1ccccc1NC(=O)N1CCC(CNc2cccc(-c3sc(C(=O)O)c(OCC(=O)O)c3Br)c2)CC1
0.003 | Cc1cccc(C)c1NC(=O)N1CCC(CNc2cccc(-c3sc(C(=O)O)c(OCC(=O)O)c3Br)c2)CC1
1.7 | Nc1cccc(-c2sc(C(=O)O)c(OCC(=O)O)c2Br)c1
2 | CCC(=O)Nc1cccc(-c2sc(C(=O)O)c(OCC(=O)O)c2Br)c1
2.1 | CC(C)NC(=O)Nc1cccc(-c2sc(C(=O)O)c(OCC(=O)O)c2Br)c1
2 | COC(=O)Nc1cccc(-c2sc(C(=O)O)c(OCC(=O)O)c2Br)c1
0.2 | O=C(O)COc1c(C(=O)O)sc(-c2cccc(NCC3CCCCC3)c2)c1Br
0.12 | O=C(O)COc1c(C(=O)O)sc(-c2cccc(NC3CCCCCC3)c2)c1Br
3.8 | O=C(O)COc1c(C(=O)O)sc(-c2cccc(NC3CCNCC3)c2)c1Br
0.39 | COC(=O)N1CCC(Nc2cccc(-c3sc(C(=O)O)c(OCC(=O)O)c3Br)c2)CC1
0.044 | CS(=O)(=O)N1CCC(Nc2cccc(-c3sc(C(=O)O)c(OCC(=O)O)c3Br)c2)CC1
0.055 | O=C(O)COc1c(C(=O)O)sc(-c2cccc(NC3CCN(S(=O)(=O)c4ccccc4)CC3)c2)c1Br
0.008 | Cc1c(-c2cccc(NC3CCN(S(=O)(=O)Cc4ccccc4)CC3)c2)sc(C(=O)O)c1OCC(=O)O

Ki [µM] | Structure (SMILES)
0.00068 | O=C(O)COc1c(C(=O)O)sc(-c2cccc(NC3CCN(S(=O)(=O)Cc4ccccc4)CC3)c2)c1Cl
0.024 | O=C(O)COc1c(C(=O)O)sc(-c2cccc(OC3CCN(S(=O)(=O)Cc4ccccc4)CC3)c2)c1Br
0.004 | O=C(O)COc1c(C(=O)O)sc(-c2cccc(NCC3CCN(C(=O)Nc4ccccc4Cl)CC3)c2)c1Br
2 | O=C(O)COc1cc(-c2cccc(NC3CCN(S(=O)(=O)Cc4ccccc4)CC3)c2)sc1C(=O)O
0.074 | O=C(O)COc1c(C(=O)O)sc(-c2cccc(NCC3CCN(S(=O)(=O)Cc4ccccc4)CC3)c2)c1Br
0.01 | O=C(O)COc1c(C(=O)O)sc(-c2cccc(NC3CCN(S(=O)(=O)Cc4cccc(Cl)c4)CC3)c2)c1Br
0.004 | Cc1ccccc1CS(=O)(=O)N1CCC(Nc2cccc(-c3sc(C(=O)O)c(OCC(=O)O)c3Br)c2)CC1
0.68 | O=C(O)COc1c(C(=O)O)sc(-c2cccc(OCc3ccccc3)c2)c1Br
0.39 | O=C(O)COc1c(C(=O)O)sc(-c2cccc(NC3CCCC3)c2)c1Br
0.31 | O=C(O)COc1c(C(=O)O)sc(-c2cccc(NC3CCOCC3)c2)c1Br
0.001 | CS(=O)(=O)Nc1ccccc1CS(=O)(=O)N1CCC(Nc2cccc(-c3sc(C(=O)O)c(OCC(=O)O)c3Br)c2)CC1
0.19 | CC(=O)N1CCC(Nc2cccc(-c3sc(C(=O)O)c(OCC(=O)O)c3Br)c2)CC1
0.3 | O=C(O)COc1c(C(=O)O)sc(-c2cccc(NC3CCN(C(=O)NCc4ccccc4)CC3)c2)c1Br
4 | COc1cccc(-c2sc(C(=O)O)c(OCC(=O)O)c2Br)c1
2.1 | O=C(O)COc1c(C(=O)O)sc(-c2cccc(NC(=O)c3ccccc3)c2)c1Br
0.44 | O=C(O)COc1c(C(=O)O)sc(-c2cccc(NS(=O)(=O)c3ccc(F)cc3)c2)c1Br
0.003 | Cc1ccccc1NC(=O)N1CCC(CNc2cccc(-c3sc(C(=O)O)c(OCC(=O)O)c3Br)c2)CC1
0.014 | CCNC(=O)Nc1ccccc1CS(=O)(=O)N1CCC(Nc2cccc(-c3sc(C(=O)O)c(OCC(=O)O)c3Br)c2)CC1
0.31 | O=C(O)COc1c(C(=O)O)sc(-c2cccc(NCC3CCN(S(=O)(=O)c4ccccc4)CC3)c2)c1Br

Target: T2, Receptor-type tyrosine-protein phosphatase C (Homo sapiens, UniProt P08575)
T2 sequence (P08575 whole entry): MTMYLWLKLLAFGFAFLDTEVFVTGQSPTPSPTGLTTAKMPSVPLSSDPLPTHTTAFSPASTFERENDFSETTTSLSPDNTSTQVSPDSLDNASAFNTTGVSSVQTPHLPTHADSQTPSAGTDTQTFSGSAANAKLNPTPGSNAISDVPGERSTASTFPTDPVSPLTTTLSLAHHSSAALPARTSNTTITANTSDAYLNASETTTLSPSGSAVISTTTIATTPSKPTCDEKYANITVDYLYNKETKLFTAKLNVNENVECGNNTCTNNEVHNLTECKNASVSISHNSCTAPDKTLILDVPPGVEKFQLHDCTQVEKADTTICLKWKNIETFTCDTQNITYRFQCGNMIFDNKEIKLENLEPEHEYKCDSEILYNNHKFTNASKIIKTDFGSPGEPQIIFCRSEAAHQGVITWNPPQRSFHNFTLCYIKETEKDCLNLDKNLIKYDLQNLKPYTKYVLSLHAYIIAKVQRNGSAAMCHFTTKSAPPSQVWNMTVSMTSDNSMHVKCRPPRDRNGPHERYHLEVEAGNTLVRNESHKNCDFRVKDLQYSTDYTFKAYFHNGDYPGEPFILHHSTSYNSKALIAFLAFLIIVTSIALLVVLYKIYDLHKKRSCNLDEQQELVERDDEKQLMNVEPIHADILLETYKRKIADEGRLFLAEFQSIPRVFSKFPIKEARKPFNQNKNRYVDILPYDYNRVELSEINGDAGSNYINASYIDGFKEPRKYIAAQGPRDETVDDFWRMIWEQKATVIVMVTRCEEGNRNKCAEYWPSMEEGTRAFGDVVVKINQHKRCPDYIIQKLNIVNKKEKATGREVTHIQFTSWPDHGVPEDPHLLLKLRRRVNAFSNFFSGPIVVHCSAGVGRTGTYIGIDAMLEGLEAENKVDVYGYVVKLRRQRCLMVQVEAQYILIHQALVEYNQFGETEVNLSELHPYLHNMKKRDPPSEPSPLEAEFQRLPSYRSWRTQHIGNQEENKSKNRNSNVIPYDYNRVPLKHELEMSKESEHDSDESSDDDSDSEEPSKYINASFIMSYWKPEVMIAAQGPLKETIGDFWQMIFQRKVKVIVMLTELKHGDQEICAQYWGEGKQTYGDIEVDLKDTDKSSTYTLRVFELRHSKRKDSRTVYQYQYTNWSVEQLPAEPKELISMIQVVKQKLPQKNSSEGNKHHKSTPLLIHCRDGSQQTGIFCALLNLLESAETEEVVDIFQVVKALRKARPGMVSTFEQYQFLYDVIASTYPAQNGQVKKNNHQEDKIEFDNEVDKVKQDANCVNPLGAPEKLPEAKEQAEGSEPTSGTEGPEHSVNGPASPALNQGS
Test: Inhibition of human recombinant CD45

Ki [µM] | Structure (SMILES)
280 | O=C(O)COc1c(C(=O)O)sc(-c2ccccc2)c1Br
151 | CC1(C)CC(Nc2cccc(-c3sc(C(=O)O)c(OCC(=O)O)c3Br)c2)CC(C)(C)C1

Target: Receptor-type tyrosine-protein phosphatase F (Homo sapiens, UniProt P10586)
Test: Inhibition of human recombinant LAR

Receptor-type tyrosine-protein phosphatase F, sequence (P10586 whole entry): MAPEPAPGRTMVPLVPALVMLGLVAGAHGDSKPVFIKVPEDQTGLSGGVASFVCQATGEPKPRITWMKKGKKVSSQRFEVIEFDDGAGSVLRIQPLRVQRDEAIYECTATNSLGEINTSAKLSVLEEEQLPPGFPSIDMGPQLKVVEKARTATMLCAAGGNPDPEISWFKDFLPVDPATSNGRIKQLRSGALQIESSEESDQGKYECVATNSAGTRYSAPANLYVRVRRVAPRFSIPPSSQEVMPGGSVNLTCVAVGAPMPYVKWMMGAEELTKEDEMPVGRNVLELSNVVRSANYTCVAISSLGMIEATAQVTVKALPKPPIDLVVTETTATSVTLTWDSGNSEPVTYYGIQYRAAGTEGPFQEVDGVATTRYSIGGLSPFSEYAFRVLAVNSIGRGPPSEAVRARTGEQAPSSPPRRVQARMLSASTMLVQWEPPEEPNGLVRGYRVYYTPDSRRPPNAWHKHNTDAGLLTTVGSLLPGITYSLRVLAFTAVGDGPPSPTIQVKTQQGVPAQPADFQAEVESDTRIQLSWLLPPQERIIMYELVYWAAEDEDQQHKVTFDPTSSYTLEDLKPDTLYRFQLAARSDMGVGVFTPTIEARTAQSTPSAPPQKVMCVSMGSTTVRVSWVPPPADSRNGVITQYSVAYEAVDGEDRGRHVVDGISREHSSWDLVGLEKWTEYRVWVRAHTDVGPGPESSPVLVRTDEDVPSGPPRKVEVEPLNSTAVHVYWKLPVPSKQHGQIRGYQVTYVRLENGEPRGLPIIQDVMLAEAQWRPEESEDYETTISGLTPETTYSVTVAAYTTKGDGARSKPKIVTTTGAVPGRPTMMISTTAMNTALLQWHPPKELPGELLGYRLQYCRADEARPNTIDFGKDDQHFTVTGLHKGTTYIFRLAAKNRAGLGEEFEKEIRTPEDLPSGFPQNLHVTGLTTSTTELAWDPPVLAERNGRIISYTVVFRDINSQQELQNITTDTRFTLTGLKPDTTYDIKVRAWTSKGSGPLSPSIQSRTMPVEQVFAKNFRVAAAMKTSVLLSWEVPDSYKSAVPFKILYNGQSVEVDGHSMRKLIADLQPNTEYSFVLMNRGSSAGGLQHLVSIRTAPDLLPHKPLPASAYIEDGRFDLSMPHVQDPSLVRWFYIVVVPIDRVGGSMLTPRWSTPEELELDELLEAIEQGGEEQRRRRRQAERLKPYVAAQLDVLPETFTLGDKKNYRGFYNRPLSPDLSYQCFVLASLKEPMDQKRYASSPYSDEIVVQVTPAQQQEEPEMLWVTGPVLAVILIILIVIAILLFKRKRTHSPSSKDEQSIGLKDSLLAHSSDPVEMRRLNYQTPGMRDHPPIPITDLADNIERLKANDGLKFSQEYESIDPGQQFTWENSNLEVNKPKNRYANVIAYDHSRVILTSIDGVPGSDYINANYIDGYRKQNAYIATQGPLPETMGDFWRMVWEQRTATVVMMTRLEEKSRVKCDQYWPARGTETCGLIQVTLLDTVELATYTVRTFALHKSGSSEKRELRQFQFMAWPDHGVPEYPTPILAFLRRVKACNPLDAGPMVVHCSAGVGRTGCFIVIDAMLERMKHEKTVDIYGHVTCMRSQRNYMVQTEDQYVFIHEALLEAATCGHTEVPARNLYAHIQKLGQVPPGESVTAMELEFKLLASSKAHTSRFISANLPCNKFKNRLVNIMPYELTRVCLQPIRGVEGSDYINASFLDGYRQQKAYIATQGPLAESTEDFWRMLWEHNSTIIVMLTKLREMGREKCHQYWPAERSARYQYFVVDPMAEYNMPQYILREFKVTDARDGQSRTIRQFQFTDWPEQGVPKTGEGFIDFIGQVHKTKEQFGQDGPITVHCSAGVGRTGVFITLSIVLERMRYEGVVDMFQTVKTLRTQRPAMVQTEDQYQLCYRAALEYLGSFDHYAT

Ki [µM] | Structure (SMILES)
> 500 | O=C(O)COc1c(C(=O)O)sc(-c2ccccc2)c1Br
> 1000 | CC1(C)CC(Nc2cccc(-c3sc(C(=O)O)c(OCC(=O)O)c3Br)c2)CC(C)(C)C1
